Assay results from patent US20150328320A1, “Novel Pharmaceutical Composition” (GLAXOSMITHKLINE LLC, priority 2012, published 2015).
“Also recorded” adds a separate entry of the source.

How the values were obtained:
[1] = Physical stability, photo-stability and relative solubility of the drug substance; format: physicochemical
From the text: Several additional challenges exist concerning the use of Compound A in a pediatric formulation.
The potential for unacceptable levels of photo-degradation is of particular importance since photo-catalyzed degradation products may be potentially toxic.

[2] = Trametinib concentration profile as a function of time and Cavitron concentration (FIG. 2)
[3] = Aqueous solubility of trametinib in the presence of various solubilizers (FIG. 1); format: physicochemical
From the text: FIG. 1 depicts the aqueous solubility of trametinib in the presence of various solubilizers.
As used herein, “solubilizer” is a substance (liquid or solid) that helps to keep the drug uniformly dispersed and dissolved in solution. A solubilizer prevents recrystallization and precipitation of the dissolved drug out of solution. For use in the present invention, suitable solubilizers include, but are not limited to, hypromellose, polyvinylpyrrolidone, sulfobutylether B-cyclodextrin (Captisol) and hydroxypropyl B-cyclodextrin (Cavitron). A combination of solubilizers can also be used. […] Suitably, the amount of solubilizer in a formulation according to the invention will be selected from: about 30 to 95%; suitably about 50 to 80%; suitably about 65 to 75%; by weight of the final product. Suitably, the amount of solubilizer in a formulation according to the invention will be selected from: about 30%; suitably about 35%, suitably about 40%, suitably about 45%, suitably about 50%, suitably about 55%, suitably about 60%, suitably about 65%, suitably about 70%, suitably about 75%, suitably about 80%, suitably about 85%, suitably about 90%, and suitably about 95%, by weight of the final product.

[4] = Effect of HPMC and solubilizers on aqueous solubility of trametinib (FIG. 3); format: physicochemical; settings: HPMC present in a cavitron solution, initial 1 mg/mL
[5] = Solubility profile at 0.05 mg/mL using solubilizers as a function of time (FIG. 4); format: physicochemical; settings: 30 days, 25° C. and 60% relative humidity
[6] = Exposure and absorption upon in vivo administration
From the text: Suitably the powder for oral solution (POS) of the current invention contain micronized Compound A where at least 90% of the particles of Compound A are from 1 to 20 microns, suitably from 2.2 to 10.5 microns, such formulations provide an acceptable exposure/absorption profile. Suitably the powder for oral solution (POS) of the current invention contains micronized Compound A where at least 50% of the particles of Compound A are from 1 to 6 microns, suitably from 1.5 to 4.3 microns, such formulations provide an acceptable exposure/absorption profile. Suitably the powder for oral solution (POS) of the current invention contains micronized Compound A where at least 10% of the particles of Compound A are from 0.01 to 3.0 microns, suitably from 0.77 to 1.3 microns, such formulations provide an acceptable exposure/absorption profile. Such formulations help provide safe and effective treatment.

[7] = test system: BRAF V600-mutation positive metastatic melanoma; settings: subjects with BRAF V600-mutation positive metastatic melanoma, Phase III study; cited from earlier work

Row | solubility relative to Compound A [1] | aqueous solubility ([3]; hypromellose and hydroxypropyl B-cyclodextrin combined) | aqueous solubility ([3]; in hydroxypropyl B-cyclodextrin (Cavitron) formulation) | aqueous solubility ([3]; in polyethylene glycol (PEG) solution) | aqueous solubility ([3]; in polyethylene glycol (PEG) solution, listed as Trametinib) | aqueous solubility ([3]; in propylene glycol solution) | aqueous solubility ([3]; in propylene glycol solution, listed as Trametinib) | exposure and absorption [6] | trametinib concentration remaining in solution ([2]; Cavitron solutions, initial concentration 1 mg/mL, after five days) | Structure (SMILES) | precipitation out of solution ([2]; starting concentration ~0.05 mg/mL, conditions of FIG. 2) | stability of solution (precipitation) [4] | solubility and solution stability over time ([5]; captisol solution) | solubility and solution stability over time ([5]; cavitron solution) | physical stability of the solvate (desolvation) ([1]; high humidity or aqueous environment, handling and formulation) | photo-stability ([1]; light) | anti-tumor activity [7]
1 | much less soluble than Compound A |  |  |  |  |  |  |  |  | CC(=O)Nc1cccc(-n2c(=O)n(C3CC3)c(=O)c3c(Nc4ccc(I)cc4F)n(C)c(=O)c(C)c32)c1 [Compound B, N-{3-[3-cyclopropyl-5-(2-fluoro-4-iodo-phenylamino)-6,8-dimethyl-2,4,7-trioxo-3,4,6,7-tetrahydro-2H-pyrido[4,3-d]pyrimidin-1-yl]phenyl}acetamide] | no significant amount of the drug will precipitate out of solution |  |  |  |  |  | 
2 |  | good aqueous solubility | greatest solubility | very low aqueous solubility | generally not soluble | very low aqueous solubility | generally not soluble | poor exposure and absorption | 7-10 % of the initial concentration | CC(=O)Nc1cccc(-n2c(=O)n(C3CC3)c(=O)c3c(Nc4ccc(I)cc4F)n(C)c(=O)c(C)c32)c1 [Compound A, N-{3-[3-cyclopropyl-5-(2-fluoro-4-iodo-phenylamino)-6,8-dimethyl-2,4,7-trioxo-3,4,6,7-tetrahydro-2H-pyrido[4,3-d]pyrimidin-1-yl]phenyl}acetamide dimethyl sulfoxide solvate] |  | increases the stability of trametinib solution | able to maintain the solubility and stabilize the solution for 30 days | able to maintain the solubility and stabilize the solution for 30 days | favors conversion from the dimethyl sulfoxide solvate to the de-solvated form; also recorded: can undergo desolvation | very sensitive to light; also recorded: can suffer from photo-instability | has shown anti-tumor activity
